Measured values as given in US6432958B1, “2-piperazinoalkylaminobenzoazole derivatives: dopamine receptor subtype specific ligands” (Neurogen Corporation, priority 1998, dated 2002).

target: T1, D4 receptors from human (Homo sapiens, UniProt P21917); assay: D4 receptor binding assay (3H-YM 09151-2 displacement); conditions: COS cells containing recombinantly produced human D4 receptors; 0.5 nM 3H-YM 09151-2
T1 construct: expressed in transfected cells; host or cells: COS cells
T1 sequence (P21917 1-419): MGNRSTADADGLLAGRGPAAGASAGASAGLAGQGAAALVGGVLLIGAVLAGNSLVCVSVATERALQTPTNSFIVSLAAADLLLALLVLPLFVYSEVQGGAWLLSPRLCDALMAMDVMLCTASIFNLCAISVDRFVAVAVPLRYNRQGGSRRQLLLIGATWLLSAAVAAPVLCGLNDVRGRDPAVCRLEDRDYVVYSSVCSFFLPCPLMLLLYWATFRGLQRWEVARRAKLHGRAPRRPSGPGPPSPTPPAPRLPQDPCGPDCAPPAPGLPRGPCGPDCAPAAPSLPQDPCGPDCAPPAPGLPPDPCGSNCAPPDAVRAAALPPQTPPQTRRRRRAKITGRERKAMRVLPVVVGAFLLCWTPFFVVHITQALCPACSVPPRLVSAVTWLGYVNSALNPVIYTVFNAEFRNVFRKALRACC
Procedure: (§1) Assays for D2, D3 and D4 Receptor Binding Activity
(§2) Pellets of COS cells containing recombinantly produced D2 or D4 receptors from human are used for the assays. The sample is homogenized in 100 volumes (w/vol) of 0.05 M Tris HCl buffer at 4° C. and pH 7.4. The sample is then centrifuged at 30,000×g and resuspended and rehomogenized. The sample is then centrifuged again at 30,000×g and the final tissue sample is frozen until use. The tissue is resuspended 1:20 (wt/vol) in 0.05 M Tris HCl buffer containing 100 mM NaCl.
(§3) Incubations are carried out a […] and contain 0.4 ml of tissue sample, 0.5 nM ^3H-YM 09151-2 (Nemonapride, cis-5-Chloro-2-methoxy-4-(methylamino)-N-(2-methyl-2-(phenylmethyl)-3-pyrrolidinyl)benzamide) and the compound of interest in a total incubation of 1.0 ml. Nonspecific binding is defined as that binding found in the presence of […] spiperone; without further additions, nonspecific binding is less than 20% of total binding.

Row | Ki | SMILES
1 | 6 nM | Fc1cnc(N2CCN(CCCCNc3nc4ccccc4s3)CC2)nc1 [Compound 6]
2 | 1 nM | COc1ccccc1N1CCN(CCNc2nc3ccc(F)cc3s2)CC1 [Compound 2, 1-(2-Methoxyphenyl)-4-(2-[6-fluorobenzothiazol-2-ylamino]ethyl)piperazine difumarate]
3 | 11 nM | Cl.c1ccc(N2CCN(CCNc3nc4ccccc4o3)CC2)nc1 [Compound 3, 1-(Pyridin-2-yl)-4-(2-[benzoxazol-2-yl]aminoethyl)piperazine hydrochloride]

Row | SMILES | Ki
4 | Br.Cn1c(NCCN2CCN(c3cccc(C(F)(F)F)c3)CC2)nc2ccccc21 [Compound 1, 1-(3-Trifluoromethylphenyl)-4-(2-[1-methylbenzimidazol-2-yl]aminoethyl)piperazine hydrobromide] | 3 nM

tested on: not given; assay: not given; conditions: not given

Row | melting point | SMILES
5 | 290 to 291 °C | Br.c1ccc(N2CCN(CCNc3nc4ccccc4[nH]3)CC2)nc1
6 | 259 to 260 °C | Br.Fc1ccc2nc(NCCN3CCN(c4ccccn4)CC3)sc2c1
7 | 194 to 195 °C | Br.COc1ccccc1N1CCN(CCNc2nc3c(Cl)cccc3s2)CC1
8 | 197 to 202 °C | Cl.c1cnc(N2CCN(CCNc3nc4ccccc4o3)CC2)nc1
9 | 195 to 197 °C | Br.COc1ccccc1N1CCN(CCCNc2nc3ccccc3s2)CC1
10 | 226 to 227 °C | Br.COc1ccccc1N1CCN(CCNc2nc3c(C)cccc3s2)CC1
11 | 273 to 274 °C | Br.COc1ccccc1N1CCN(CCNc2nc3ccccc3n2C)CC1
12 | 161 to 163 °C | O=C(O)/C=C/C(=O)O.O=C(O)/C=C/C(=O)O.c1cnc(N2CCN(CCNc3nc4ccccc4s3)CC2)nc1
13 | 270 to 271 °C | Br.Fc1ccc(N2CCN(CCNc3nc4ccc(F)cc4s3)CC2)cc1
14 | 229 to 231 °C | Cl.Cl.Fc1ccc(N2CCN(CCNc3nc4ccccc4s3)CC2)cc1
15 | 228 to 229 °C | Fc1ccc2nc(NCCN3CCN(Cc4ccccc4)CC3)sc2c1.O=C(O)/C=C/C(=O)O.O=C(O)/C=C/C(=O)O
16 | 216 to 217 °C | Br.CC(C)Oc1ccccc1N1CCN(CCNc2nc3ccc(F)cc3s2)CC1
17 | 279 to 281 °C | Br.Fc1cnc(N2CCN(CCNc3nc4ccc(F)cc4s3)CC2)nc1
18 | 174 to 175 °C | Fc1cnc(N2CCN(CCNc3nc4ccccc4s3)CC2)nc1.O=C(O)/C=C/C(=O)O.O=C(O)/C=C/C(=O)O
19 | 190 to 196 °C | Br.COc1ccccc1N1CCN(CCNc2nc3ccc(S(C)(=O)=O)cc3s2)CC1
20 | 109 to 110 °C | Br.CCn1c(NCCN2CCN(c3ccccc3OC)CC2)nc2ccccc21
21 | 131 to 132 °C | O=C(O)/C=C/C(=O)O.O=C(O)/C=C/C(=O)O.c1ccc(N2CCN(CCNc3nc4ccccc4s3)CC2)cc1

Row | melting point | SMILES
22 | 179 to 180 °C | Fc1ccc2nc(NCCN3CCN(c4ncccn4)CC3)sc2c1.O=C(O)/C=C/C(=O)O.O=C(O)/C=C/C(=O)O
23 | 259 to 261 °C | Br.Fc1ccc2nc(NCCN3CCN(c4cccc(C(F)(F)F)c4)CC3)sc2c1
24 | 240 to 250 °C | Br.Cc1cnc(N2CCN(CCNc3nc4ccc(F)cc4s3)CC2)nc1
25 | 227 to 228 °C | Br.CCOc1ccc2nc(NCCN3CCN(c4ccccc4OC)CC3)sc2c1
26 | 167 to 170 °C | Cc1cnc(N2CCN(CCNc3nc4ccccc4s3)CC2)nc1.O=C(O)/C=C/C(=O)O.O=C(O)/C=C/C(=O)O
27 | 215 to 216 °C | Br.COc1ccccc1N1CCN(CCNc2nc3ccccc3[nH]2)CC1
28 | 241 to 247 °C | Br.c1ccc(N2CCN(CCNc3nc4ccccc4[nH]3)CC2)cc1
29 | 268 to 270 °C | Br.Fc1ccc2nc(NCCN3CCN(c4ccccc4)CC3)sc2c1
30 | 270 °C (dec.) | Br.CCn1c(NCCN2CCN(c3ccccc3)CC2)nc2ccccc21
31 | 235 to 237 °C | Br.CCOc1ccccc1N1CCN(CCNc2nc3ccc(F)cc3s2)CC1
32 | 171 to 173 °C | Br.COc1ccccc1N1CCN(CCNc2nc3c(OC)cccc3s2)CC1
33 | 230 to 232 °C | Cl.Cl.Clc1ccc(N2CCN(CCNc3nc4ccccc4s3)CC2)cc1
34 | 159 to 160 °C | O=C(O)/C=C/C(=O)O.O=C(O)/C=C/C(=O)O.c1ccc(N2CCN(CCNc3nc4ccccc4s3)CC2)nc1
35 | 255 to 265 °C | Cl.c1ccc(N2CCN(CCNc3nc4ccccc4o3)CC2)nc1 [Compound 3, 1-(Pyridin-2-yl)-4-(2-[benzoxazol-2-yl]aminoethyl)piperazine hydrochloride]
36 | 101 to 103 °C | COc1ccccc1N1CCN(CCNc2nc3ccccc3s2)CC1.O=C(O)/C=C/C(=O)O.O=C(O)/C=C/C(=O)O
37 | 238 to 240 °C | Br.Fc1ccc2nc(NCCN3CCN(Cc4ccc(Cl)cc4)CC3)sc2c1
38 | 285 °C (dec.) | Br.CC(C)Oc1ccccc1N1CCN(CCNc2nc3ccccc3n2C)CC1

Row | SMILES | melting point
39 | Br.Cn1c(NCCN2CCN(c3cccc(C(F)(F)F)c3)CC2)nc2ccccc21 [Compound 1, 1-(3-Trifluoromethylphenyl)-4-(2-[1-methylbenzimidazol-2-yl]aminoethyl)piperazine hydrobromide] | 283 °C (dec.)

target: T2, D2 receptors from human (Homo sapiens, UniProt P14416); assay: D2 receptor binding assay (3H-YM 09151-2 displacement); conditions: COS cells containing recombinantly produced human D2 receptors; 0.5 nM 3H-YM 09151-2
T2 construct: expressed in transfected cells; host or cells: COS cells
Procedure: as §1, §2, §3

T2 sequence (P14416 whole entry): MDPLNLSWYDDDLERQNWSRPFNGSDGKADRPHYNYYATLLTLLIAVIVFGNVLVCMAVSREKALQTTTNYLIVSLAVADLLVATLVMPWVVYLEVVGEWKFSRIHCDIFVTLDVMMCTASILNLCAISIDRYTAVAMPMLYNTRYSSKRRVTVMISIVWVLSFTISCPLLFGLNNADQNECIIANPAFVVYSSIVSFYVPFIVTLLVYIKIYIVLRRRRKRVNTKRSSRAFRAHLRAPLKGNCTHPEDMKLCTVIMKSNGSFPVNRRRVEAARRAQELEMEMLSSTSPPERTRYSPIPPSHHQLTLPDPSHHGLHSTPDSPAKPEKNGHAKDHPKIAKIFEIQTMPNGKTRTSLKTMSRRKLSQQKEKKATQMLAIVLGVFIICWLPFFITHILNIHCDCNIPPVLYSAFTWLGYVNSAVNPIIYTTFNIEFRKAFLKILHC

Row | Ki | SMILES
40 | 1640 nM | Fc1cnc(N2CCN(CCCCNc3nc4ccccc4s3)CC2)nc1 [Compound 6]
41 | 175 nM | COc1ccccc1N1CCN(CCNc2nc3ccc(F)cc3s2)CC1 [Compound 2, 1-(2-Methoxyphenyl)-4-(2-[6-fluorobenzothiazol-2-ylamino]ethyl)piperazine difumarate]
42 | > 10000 nM | Cl.c1ccc(N2CCN(CCNc3nc4ccccc4o3)CC2)nc1 [Compound 3, 1-(Pyridin-2-yl)-4-(2-[benzoxazol-2-yl]aminoethyl)piperazine hydrochloride]

Row | SMILES | Ki
43 | Br.Cn1c(NCCN2CCN(c3cccc(C(F)(F)F)c3)CC2)nc2ccccc21 [Compound 1, 1-(3-Trifluoromethylphenyl)-4-(2-[1-methylbenzimidazol-2-yl]aminoethyl)piperazine hydrobromide] | > 10000 nM
